Reference: US20250134888A1, “INHIBITORS OF MALIC ENZYME 1” (Cornell University, priority 2022, published 2025)
Where two headings read alike, the source gives them in different places.

What was measured:
[1] = Permeability pH 6.5; type: in vitro ADME; conditions: PAMPA
[2] = test system: H23; assay: Activity in H23 cells (ME1 non-responder line); type: cell-based; conditions: Homo sapiens
Procedure: (§1) Compound 1-4 were tested (Table 1) for inhibition of ME1. […] Capan1 is an ME1 responder line. H23 is an ME1 non-responder line.
(§2) Compound 5-7 were tested (Table 2) for inhibition of ME1. […] Capan1 is an ME1 responder line. H23 is an ME1 non-responder line.

[3] = test system: CAPAN1; assay: Activity in Capan1 cells (ME1 responder line); type: cell-based; conditions: Homo sapiens
Procedure: as §1, §2

[4] = NCI-H23, Table 1, read-out: H23 IC50/EC50
[5] = CAPAN-1, Table 1, read-out: CAPAN1 IC50/EC50
[6] = NCI-H23, Table 2, read-out: H23 IC50/EC50
[7] = CAPAN-1, Table 2, read-out: CAPAN1 IC50/EC50

SMILES | Papp ([1]; Table 1) [×10⁻⁶ cm/s] | EC50 [2, 4] [µM] | EC50 [3, 5] [µM] | Papp ([1]; Table 2) [×10⁻⁶ cm/s] | EC50 [2, 6] [µM] | EC50 [3, 7] [µM]
CC1CCN(c2ccc3nnc(-c4cccc(CN(C)C)c4)n3n2)CC1 [Compound 1] | 26.5 | 8.1 | 16.1 |  |  | 
CCN1CCC(C(=O)Nc2cccc(-c3nnc4ccc(N5CCC(C)CC5)nn34)c2)CC1 [Compound 2] | < 0.3 | 8.6 | 3.1 |  |  | 
CC1CCN(c2nc3c(c(N4CCc5n[nH]cc5C4)n2)CS(=O)(=O)C3)CC1 [Compound 3] | > 30 | 4.8 | 26.6 |  |  | 
Cc1nn(-c2ccc(Cl)cc2)c2ncc(C(=O)NC3CCN(C)CC3)cc12 [Compound 4] | > 30 |  | 1.8 |  |  | 
Cc1cc(=O)c(O)cn1CCN1CCCc2ccccc21 [Compound 5] |  |  |  | 15.1 | 8.6 | 2.4
Cc1cc(=O)c(O)cn1CCCc1ccc(Cl)cc1 [Compound 6] |  |  |  | 18.1 | 1.7 | 0.78
Cc1cc(=O)c(O)c(CN2CC=C(c3ccc(F)cc3)CC2)n1C [Compound 7] |  |  |  |  | 5.7 | 26.6
